Test results from patent US20240228448A1 (Washington University, priority 2021, published 2024).
Read-outs that look alike come from different tables or passages of the source.

Tests used:
S1P5 = S1P5 (Homo sapiens, UniProt Q9H228); test: competitive S1Ps cell membrane binding assay against [32P]S1P, S1P5; conditions: Table 5; read-out: IC50 (nM) S1P5
Excerpt: (§1) One way to measure affinity is use of a general competition binding assay.

S1P1 = S1P1 (Homo sapiens, UniProt P21453); test: competitive S1Ps cell membrane binding assay against [32P]S1P, S1P1
Excerpt: as §1

S1P2-5 = test: competitive S1Ps cell membrane binding assay against [32P]S1P, S1P2-5 reported together
Excerpt: as §1

[1] = MicroPET brain study in cynomolgus macaque; conditions: for brain uptake in nonhuman primates: MicroPET, in words
Protocol: Using a Focus 220 microPET scanner to collect dynamic scans for 2 hours after intravenous injection of ˜0.35 GBq dose into male macaques. Radiometabolites were measured from arterial blood samples collected at 5, 15, 30, and 60 min post-injection of radiotracer. The HPLC eluent was collected, and fractions were counted in a gamma counter.
Male macaques (˜10 kg) were used for PET imaging data acquisition with a microPET Focus 220 scanner (Siemens Inc., Knoxville, TN). Animals were anesthetized using ketamine and glycopyrrolate and maintained with inhalation of isoflurane. Core temperature was kept at 37° C. with a heated water blanket. The head was secured in a customized head holder. […] Emission data were corrected for dead time, scatter, and attenuation and then reconstructed. […] Predefined brain regions of interest from the template were applied to the co-registered PET image to obtain regional time-activity curves. The measurement of the brain uptake of radiotracer was standardized to body weight and the dose of radioactivity injected to yield a standardized uptake value (SUV).
The brain uptakes of these tracers were measured by Focus 220 microPET scanner to collect dynamic scans for 2 hours after intravenous injection of ˜0.35 GBq dose into male cynomolgus macaques (8-9 kg).

[2] = Human biodistribution / dosimetry PET study of [11C]CS1P1; format: in vivo
Protocol: One human (88 kg, SIEMENS, patient ID: 1179101) was imaged with a dose of 7.2 mCi (FIG. 10A). Good uptake was found in the brain (FIG. 10B). Residence time and total absorbed dose in individual organs was also measured (FIG. 10C and Table 4).

S1P4 = target: T1, S1P4 (Homo sapiens, UniProt O95977); test: competitive S1Ps cell membrane binding assay against [32P]S1P, S1P4; conditions: Table 5; read-out: IC50 (nM) S1P4
T1 sequence (O95977 1-384): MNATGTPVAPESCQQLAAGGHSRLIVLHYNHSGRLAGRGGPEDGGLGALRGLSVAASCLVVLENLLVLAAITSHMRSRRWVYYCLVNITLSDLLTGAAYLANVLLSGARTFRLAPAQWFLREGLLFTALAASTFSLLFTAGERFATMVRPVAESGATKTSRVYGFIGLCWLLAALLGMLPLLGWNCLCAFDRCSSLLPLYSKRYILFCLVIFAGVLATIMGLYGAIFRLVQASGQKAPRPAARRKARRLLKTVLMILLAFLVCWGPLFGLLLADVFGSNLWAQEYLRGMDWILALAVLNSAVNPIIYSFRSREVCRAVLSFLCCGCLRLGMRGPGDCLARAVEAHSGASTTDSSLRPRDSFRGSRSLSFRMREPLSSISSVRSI

[3] = read-out: IC50 (nM) S1P1, Table 5
[4] = Table 7, read-out: IC50 (nM) S1P2-5

Sequence of S1P5 (Q9H228 whole entry, species assumed): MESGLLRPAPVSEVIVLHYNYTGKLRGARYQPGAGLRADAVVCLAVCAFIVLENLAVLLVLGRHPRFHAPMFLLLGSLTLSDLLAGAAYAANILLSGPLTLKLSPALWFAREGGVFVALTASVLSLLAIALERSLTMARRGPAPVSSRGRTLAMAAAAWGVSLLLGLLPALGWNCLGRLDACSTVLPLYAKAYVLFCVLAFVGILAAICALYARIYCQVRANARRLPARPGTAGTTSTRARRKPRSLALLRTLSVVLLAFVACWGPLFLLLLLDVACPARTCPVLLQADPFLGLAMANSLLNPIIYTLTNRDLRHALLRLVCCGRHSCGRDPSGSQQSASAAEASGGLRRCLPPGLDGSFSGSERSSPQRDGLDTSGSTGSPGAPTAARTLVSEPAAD
Sequence of S1P1 (P21453 whole entry, species assumed): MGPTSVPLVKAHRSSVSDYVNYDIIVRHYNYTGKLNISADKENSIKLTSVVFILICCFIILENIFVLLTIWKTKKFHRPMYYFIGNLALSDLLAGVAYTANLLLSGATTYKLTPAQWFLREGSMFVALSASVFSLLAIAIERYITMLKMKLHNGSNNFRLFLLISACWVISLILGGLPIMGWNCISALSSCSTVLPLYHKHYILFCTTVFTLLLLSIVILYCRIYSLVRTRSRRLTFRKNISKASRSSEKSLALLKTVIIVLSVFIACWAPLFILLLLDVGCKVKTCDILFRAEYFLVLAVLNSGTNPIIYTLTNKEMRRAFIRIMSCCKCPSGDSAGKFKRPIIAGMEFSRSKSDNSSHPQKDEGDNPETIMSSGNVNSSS

| SMILES | IC50 (S1P5) | IC50 (S1P1; IC50 (nM) S1P1, Table 5) | other results |
| --- | --- | --- | --- |
| CN(CCO)Cc1ccc(-c2noc(-c3ccc(OCCF)c(C(F)(F)F)c3)n2)cc1F [TZ82-114] | 120 nM | 14.6 nM | – |
| Cc1ccccc1-c1ccc(-c2nc(-c3ccc(CN(C)CCS(=O)(=O)O)c(F)c3)no2)cc1C(F)(F)F [TZ82-101] | – | 2.3 nM | – |
| CNC(=O)CCN(C)Cc1ccc(-c2noc(-c3ccc(-c4ccccc4C)c(C(F)(F)F)c3)n2)cc1F [TZ82-118] | – | 3 nM | – |
| Cc1ccccc1-c1ccc(-c2nc(-c3ccc(CNCCCO)c(F)c3)no2)cc1C(F)(F)F [TZ82-95] | 12.8 nM | – | IC50 (S1P1; [3]): 2.1 nM |
| CNCc1ccc(-c2noc(-c3ccc(OCCF)c(C(F)(F)F)c3)n2)cc1F [TZ82-110] | – | 13.4 nM | – |
| Cc1ccccc1-c1ccc(-c2nc(-c3ccc(CO)c(F)c3)no2)cc1C(F)(F)F [TZ73-135] | – | – | IC50 (S1P2-5; [4]): > 1000 nM |
| FCCOc1ccc(-c2nc(-c3ccc4cc[nH]c4c3)no2)cc1C(F)(F)F [TZ73-11] | – | – | IC50 (S1P1; [3]): 34 ± 2.4 nM |
| Cc1ccccc1-c1ccc(-c2nc(-c3ccc(CO)c(F)c3)no2)cc1C(F)F [TZ82-26] | 85.2 nM | 2.9 nM | – |
| Cc1ccccc1-c1ccc(-c2nc(-c3ccc(CN(C)CCC(=O)O)c(I)c3)no2)cc1C(F)(F)F [TZ73-143] | – | 5.2 ± 2.7 nM | – |
| Cc1ccccc1-c1ccc(-c2nc(-c3ccc(COCCO)c(I)c3)no2)cc1C(F)(F)F [TZ73-127] | – | 66.3 nM | – |
| Cc1ccccc1-c1ccc(-c2nc(-c3ccc(CN(C)CCNC(=O)OC(C)(C)C)c(F)c3)no2)cc1C(F)(F)F [TZ82-102] | – | 23.8 nM | – |
| Cc1ccccc1-c1ccc(-c2nc(-c3ccc(CN(C)CCCC(=O)O)c([18F])c3)no2)cc1C(F)(F)F [[^18F]TZ8248] | – | – | brain uptake in nonhuman primates [1]: high brain uptake; brain uptake, standard uptake value (SUV) ([1]; macaque brain, 120 min post-injection): ~2.8 |
| COc1ccc(-c2nc(-c3ccc(CN(C)CCCO)cc3)no2)cc1C(F)(F)F [TZ82-126] | 1940 nM | – | – |
| Cc1ccccc1-c1ccc(-c2nc(-c3ccc(COCCCO)c(F)c3)no2)cc1C(F)(F)F [TZ82-78] | – | 2.8 nM | – |
| Nc1cccc(-c2noc(-c3ccc(OCCF)c(C(F)(F)F)c3)n2)c1 [TZ82-42] | – | 29 ± 0.5 nM | – |
| CN(CCCO)Cc1ccc(-c2noc(-c3ccc(OCCF)c(C(F)(F)F)c3)n2)cc1 [TZ82-124] | 450 nM | – | – |
| OC(c1ccc(-c2noc(-c3ccc(OCCF)c(C(F)(F)F)c3)n2)cc1)C(F)(F)F (stereo not shown) [TZ73-27] | – | 15 ± 2.6 nM | – |
| Cc1ccccc1-c1ccc(-c2nc(-c3ccc(CN([11CH3])CCC(=O)O)c(F)c3)no2)cc1C(F)(F)F [[^11C]CS1P1] | – | – | total absorbed dose ([2]; Brain, human): 1.02 ± 0.1 μGy/MBq; total absorbed dose ([2]; Gall bladder, human): 4.82 ± 0.19 μGy/MBq; total absorbed dose ([2]; Heart wall, human): 2.06 ± 0.13 μGy/MBq; total absorbed dose ([2]; Kidneys, human): 4.66 ± 0.22 μGy/MBq; total absorbed dose ([2]; Liver, human): 9.88 ± 0.03 μGy/MBq; total absorbed dose ([2]; Lung, human): 2.13 ± 0.56 μGy/MBq; total absorbed dose ([2]; Pancreas, human): 2.22 ± 0.07 μGy/MBq; total absorbed dose ([2]; Spleen, human): 3.09 ± 0.35 μGy/MBq; total absorbed dose ([2]; Urinary bladder, human): 0.48 ± 0.32 μGy/MBq; total human effective dose ([2]; administration of 10 mCi (370 MBq)): < 0.6 mSv; Effective does (μSv/MBq) ([2]; human): 1.60 ± 0.15 μSv/MBq; safety of imaging for clinical PET studies ([2]; human, in words): safe; brain uptake, maximum SUV value ([1]; macaque brain, from 20 to 120 min post-injection): ~2.3 |
| CN(C(=O)OC(C)(C)C)c1cccc(-c2noc(-c3ccc(OCCF)c(C(F)(F)F)c3)n2)c1 [TZ73-124] | – | > 1000 nM | – |
| Cc1ccccc1-c1ccc(-c2nc(-c3ccc(COCCO)c(F)c3)no2)cc1C(F)(F)F [TZ82-3] | – | – | IC50 (S1P2-5; [4]): > 1000 nM |
| Cc1ccccc1-c1ccc(-c2nc(-c3cccc4[nH]ccc34)no2)cc1C(F)(F)F [TZ82-4] | 28.4 nM | 1.1 ± 0.1 nM | – |
| Cc1ccccc1-c1ccc(-c2nc(-c3ccc(CN(C)CCCCO)c(F)c3)no2)cc1C(F)(F)F [TZ82-53] | – | – | IC50 (S1P1; [3]): 4.9 nM |
| Cc1ccccc1-c1ccc(-c2nc(-c3ccc(CN(C)CCC(=O)O)c(Br)c3)no2)cc1C(F)(F)F [TZ82-65] | 11 nM | 2.1 nM | – |
| Cc1ccccc1-c1ccc(-c2nc(-c3ccc(COCCCCCO)c(F)c3)no2)cc1C(F)(F)F [TZ82-29] | – | 4.9 nM | IC50 (S1P2-5; [4]): > 1000 nM; IC50 (S1P1; IC50 (nM) S1P1, Table 7): 16.1 ± 0.3 nM |
| OCCOCc1ccc(-c2noc(-c3ccc(OCCF)c(C(F)(F)F)c3)n2)cc1I [TZ73-126] | – | 118 nM | – |

| SMILES | IC50 (S1P5) | IC50 (S1P1; IC50 (nM) S1P1, Table 5) | other results |
| --- | --- | --- | --- |
| OCc1ccc(-c2noc(-c3ccc(OCc4cccnc4F)c(C(F)(F)F)c3)n2)cc1 [TZ82-91] | 182 nM | 239 nM | – |
| Cc1ccccc1-c1ccc(-c2nc(-c3ccc(CN(C)CC(=O)O)c([18F])c3)no2)cc1C(F)(F)F [[^18F]TZ8247] | – | – | brain uptake in nonhuman primates [1]: high brain uptake |
| OCCn1ccc2ccc(-c3noc(-c4ccc(OCCF)c(C(F)(F)F)c4)n3)cc21 [TZ73-14] | – | 157 ± 24 nM | – |
| CNc1cccc(-c2noc(-c3ccc(OCCF)c(C(F)(F)F)c3)n2)c1 [TZ82-41] | – | 82 ± 1.8 nM | – |
| OCCOCc1ccc(-c2noc(-c3ccc(OCCF)c(C(F)(F)F)c3)n2)cc1F [TZ73-144] | – | 17 ± 7 nM | – |
| Cc1ccccc1-c1ccc(-c2nc(-c3ccc(CNO)c(F)c3)no2)cc1C(F)(F)F [TZ82-105] | – | 8.7 nM | – |
| CN(CCC(=O)O)Cc1ccc(-c2noc(-c3ccc(OCc4cccnc4F)c(C(F)(F)F)c3)n2)cc1F [TZ82-55] | 74.4 nM | 159 nM | – |
| Cc1ccccc1-c1ccc(-c2nc(-c3ccc(CO)cc3)no2)cc1C(F)(F)F [TZ82-1] | 55.6 nM | 4.6 nM | – |
| FCCOc1ccc(-c2nc(-c3cccc4cc[nH]c34)no2)cc1C(F)(F)F [TZ82-35] | – | – | IC50 (S1P1; [3]): 98 ± 26 nM |
| CN(CCC(=O)O)Cc1ccc(-c2noc(-c3ccc(OCCF)c(C(F)(F)F)c3)n2)cc1I [TZ73-147] | – | – | IC50 (S1P1; [3]): 33.1 ± 11.1 nM |
| Cc1ccccc1-c1ccc(-c2nc(-c3ccc(CNCCC(=O)O)c(F)c3)no2)cc1C(F)(F)F [TZ82-94] | 7.2 nM | 0.7 nM | – |
| CC(O)c1ccc(-c2noc(-c3ccc(OCCF)c(C(F)(F)F)c3)n2)cc1 (stereo not shown) [TZ73-28] | – | 21 ± 2.5 nM | – |
| FCCOc1ccc(-c2nc(-c3cccc4[nH]ccc34)no2)cc1C(F)(F)F [TZ82-34] | – | – | IC50 (S1P2-5; [4]): > 1000 nM |
| OCc1nc2cc(-c3noc(-c4ccc(OCCF)c(C(F)(F)F)c4)n3)ccc2[nH]1 [TZ82-37] | – | 28 ± 5.8 nM | – |
| Cc1ccccc1-c1ccc(-c2nc(-c3ccc(CN(C)CCC(=O)O)c(F)c3)no2)cc1C(F)(F)F [TZ33-21] | – | – | IC50 (S1P4): > 1000 nM; IC50 (S1P2-5; [4]): > 1000 nM; IC50 (S1P2-5; read-out: IC50 for S1P2-5): > 1000 nM |
| FCCOc1ccc(-c2nc(-c3ccc4[nH]cnc4c3)no2)cc1C(F)(F)F [TZ82-36] | – | 57 ± 7.6 nM | – |
| CN(CCC(=O)O)Cc1ccc(-c2noc(-c3ccc(OCc4cccc(F)n4)c(C(F)(F)F)c3)n2)cc1F [TZ82-56] | 39.3 nM | 55.4 nM | – |
| Cc1ccccc1-c1ccc(-c2nc(-c3ccc(CCCCO)cc3)no2)cc1C(F)(F)F [TZ82-2] | 764 nM | 9.8 nM | – |
| CC(C)(C)OC(=O)Nc1cccc(-c2noc(-c3ccc(OCCF)c(C(F)(F)F)c3)n2)c1 [TZ82-40] | – | > 1000 nM | – |
| OCc1ccc(-c2noc(-c3ccc(OCCF)c(C(F)(F)F)c3)n2)cc1F [TZ67-138] | – | – | IC50 (S1P2-5; [4]): > 1000 nM |
| OCCn1ccc2cc(-c3noc(-c4ccc(OCCF)c(C(F)(F)F)c4)n3)ccc21 [TZ73-15] | – | 57 ± 4.6 nM | – |
| Nc1ccc(-c2noc(-c3ccc(OCCF)c(C(F)(F)F)c3)n2)cc1 [TZ82-43] | – | 44 ± 0.6 nM | – |
| CN(CCCCO)Cc1ccc(-c2noc(-c3ccc(OCCF)c(C(F)(F)F)c3)n2)cc1F [TZ82-115] | 721 nM | – | – |
| OCc1ccc(-c2noc(-c3ccc(OCc4cccc(F)n4)c(C(F)(F)F)c3)n2)cc1 [TZ82-92] | 934 nM | 243 nM | – |
| OCCOCc1ccc(-c2noc(-c3ccc(OCCF)c(C(F)(F)F)c3)n2)cc1 [TZ48-77] | – | – | IC50 (S1P2-5; [4]): > 1000 nM |
